Results: US20240148821A1, “PHARMACEUTICAL USE OF CYCLIC PEPTIDE COMPOUND” (CHUGAI SEIYAKU KABUSHIKI KAISHA, priority 2021, published 2024)
Numbered stars: 1 amine (or outer) side, 2 acyl side, 3 side chain; on linkers, the order of the positions; unused ones are H or OH. Bridge positions count the residues as written; N and C are the ends. Square brackets hold non-standard residues; d marks the D form. Peptide text beside a SMILES is read from it. * marks the point of attachment. hPhe(3-Cl-4-CF3) = N[C@@H](CCc1ccc(C(F)(F)F)c(Cl)c1)C(=O)O; NMePhe(4-CF3) = CN[C@@H](Cc1ccc(C(F)(F)F)cc1)C(=O)O; NMePhe(4-Cl) = CN[C@@H](Cc1ccc(Cl)cc1)C(=O)O; NMePhe(4-Me) = CN[C@@H](Cc1ccc(C)cc1)C(=O)O; NMedβ3hAla = C[C@H](CC(=O)[*:2])N(C)[*:1]; Leu(4,5-dehydro) = C=C(C)C[C@H](N)C(=O)O; Phe(3-Br) = N[C@@H](Cc1cccc(Br)c1)C(=O)O; Phe(3-I) = N[C@@H](Cc1cccc(I)c1)C(=O)O; X26 = CC(C)=CC[C@H](N[*:1])C(=O)[*:2]; NMeY = CN[C@@H](Cc1ccc(O)cc1)C(=O)O; NMeCha = CN[C@@H](CC1CCCCC1)C(=O)O; NMeAoc(2) = CCCCCC[C@H](NC)C(=O)O; NMeD = CN[C@@H](CC(=O)O)C(=O)O; NMeL = CN[C@@H](CC(C)C)C(=O)O; NMeA = CN[C@@H](C)C(=O)O; NMeAib = CNC(C)(C)C(=O)O; Nle = CCCC[C@H](N)C(=O)O; Piperidide = C1CCN(*)CC1; Aze = O=C(O)[C@@H]1CCN1; Sar = CNCC(=O)O

system: Human pancreatic cancer cell line AsPC-1 (G12D mutation Kras); experiment: AsPC-1 cell growth inhibition (AsPC-1 CGI); assay type: cell-based; conditions: read-out: AsPC-1 cell growth inhibition, 50% growth inhibitory concentration (IC50 value); 96 hours, CellTiter-Glo, values classified in ranges
Experimental: Test compounds were serially dilated with dimethyl sulfoxide, and 200 nL was then dispensed to a U-bottom 96-well plate using Labcyte Echo. […] The cell suspension was dispensed to a. plate containing a test compound at 100 μL per well and incubated at 37° C. in a 5% carbon dioxide gas incubator. 96 hours later, 80 μL of CellTiter-Glo (Promega) was added to each well and fluorescence was measured.

SMILES	IC50 [µM]
CC[C@H](C)[C@@H]1NC(=O)[C@H](CC(C)C)N(C)C(=O)C[C@@H](C)N(C)C(=O)[C@H](CC(C)C)NC(=O)C(C)(C)N(C)C(=O)[C@H](CC(C)C)NC(=O)[C@H](CCc2ccc(C(F)(F)F)c(Cl)c2)NC(=O)CN(C)C(=O)[C@H](Cc2ccc(C)cc2)N(C)C(=O)[C@@H]2CCN2C(=O)CN(C)C1=O [Compound 1386] (cyclo([Aze][NMePhe(4-Me)][Sar][hPhe(3-Cl-4-CF3)]L[NMeAib]L[NMedβ3hAla][NMeL]I[Sar]))	> 0.5
CC[C@H](C)[C@@H]1NC(=O)[C@H](C)N(C)C(=O)C[C@@H](C)N(C)C(=O)[C@H](CC(C)C)NC(=O)C(C)(C)N(C)C(=O)[C@H](CC(C)C)NC(=O)[C@H](CCc2ccc(C(F)(F)F)c(Cl)c2)NC(=O)CN(C)C(=O)[C@H](CC2CCCCC2)N(C)C(=O)[C@@H]2CCN2C(=O)CN(C)C1=O [Compound 1387] (cyclo([Aze][NMeCha][Sar][hPhe(3-Cl-4-CF3)]L[NMeAib]L[NMedβ3hAla][NMeA]I[Sar]))	> 0.5
CC[C@H](C)[C@@H]1NC(=O)[C@H](C)N(C)C(=O)C[C@@H](C)N(C)C(=O)[C@H](CC(C)C)NC(=O)C(C)(C)N(C)C(=O)[C@H](CC(C)C)NC(=O)[C@H](CCc2ccc(C(F)(F)F)c(Cl)c2)NC(=O)CN(C)C(=O)[C@H](Cc2ccc(C(F)(F)F)cc2)N(C)C(=O)[C@@H]2CCN2C(=O)CN(C)C1=O [Compound 1392] (cyclo([Aze][NMePhe(4-CF3)][Sar][hPhe(3-Cl-4-CF3)]L[NMeAib]L[NMedβ3hAla][NMeA]I[Sar]))	> 0.5
CC[C@H](C)[C@@H]1NC(=O)[C@H](CC(C)C)N(C)C(=O)C[C@@H](C)N(C)C(=O)[C@H](CC(C)C)NC(=O)C(C)(C)N(C)C(=O)[C@H](CC(C)C)NC(=O)[C@H](CCc2ccc(C(F)(F)F)c(Cl)c2)NC(=O)CN(C)C(=O)[C@H](Cc2ccc(C(F)(F)F)cc2)N(C)C(=O)CN(C)C(=O)CN(C)C1=O [Compound 1396] (cyclo(I[Sar][Sar][NMePhe(4-CF3)][Sar][hPhe(3-Cl-4-CF3)]L[NMeAib]L[NMedβ3hAla][NMeL]))	> 0.5
CC[C@H](C)[C@@H]1NC(=O)[C@H](CC(C)C)N(C)C(=O)C[C@@H](C)N(C)C(=O)[C@H](CC(C)C)NC(=O)C(C)(C)N(C)C(=O)[C@H](CC(C)C)NC(=O)[C@H](CCc2ccc(C(F)(F)F)c(Cl)c2)NC(=O)CN(C)C(=O)[C@H](Cc2ccc(C(F)(F)F)cc2)N(C)C(=O)[C@@H]2CCN2C(=O)CN(C)C1=O [Compound 1403] (cyclo([Aze][NMePhe(4-CF3)][Sar][hPhe(3-Cl-4-CF3)]L[NMeAib]L[NMedβ3hAla][NMeL]I[Sar]))	> 0.5
CCCC[C@@H]1NC(=O)[C@H](Cc2cccc(Br)c2)NC(=O)CN(C)C(=O)[C@H](Cc2ccc(Cl)cc2)N(C)C(=O)CN(C)C(=O)CN(C)C(=O)[C@H]([C@@H](C)CC)NC(=O)[C@H](CC(C)C)N(C)C(=O)C[C@@H](C(=O)N2CCCCC2)N(C)C(=O)[C@H](CC(C)C)NC(=O)C(C)(C)N(C)C1=O [Compound 1404] ([NMeL]I[Sar][Sar][NMePhe(4-Cl)][Sar][Phe(3-Br)][Nle][NMeAib]L[NMeD]-Piperidide; lactam N-11)	> 0.5
C=C(C)C[C@@H]1NC(=O)[C@H](Cc2cccc(I)c2)NC(=O)CN(C)C(=O)[C@H](Cc2ccc(Cl)cc2)N(C)C(=O)[C@@H]2CCN2C(=O)CN(C)C(=O)[C@H]([C@@H](C)CC)NC(=O)[C@H](CC(C)C)N(C)C(=O)C[C@@H](C(=O)N2CCCCC2)N(C)C(=O)[C@H](CC(C)C)NC(=O)C(C)(C)N(C)C1=O [Compound 1414] ([NMeL]I[Sar][Aze][NMePhe(4-Cl)][Sar][Phe(3-I)][Leu(4,5-dehydro)][NMeAib]L[NMeD]-Piperidide; lactam N-11)	> 0.5
CCCC[C@@H]1NC(=O)[C@H](Cc2cccc(Br)c2)NC(=O)CN(C)C(=O)[C@H](Cc2ccc(Cl)cc2)N(C)C(=O)[C@@H]2CCN2C(=O)[C@H](C)N(C)C(=O)[C@H]([C@@H](C)CC)NC(=O)[C@H](CC(C)C)N(C)C(=O)C[C@@H](C(=O)N2CCCCC2)N(C)C(=O)[C@H](CC(C)C)NC(=O)C(C)(C)N(C)C1=O [Compound 1415] ([NMeL]I[NMeA][Aze][NMePhe(4-Cl)][Sar][Phe(3-Br)][Nle][NMeAib]L[NMeD]-Piperidide; lactam N-11)	> 0.5
CCCCCC[C@H]1C(=O)N[C@@H]([C@@H](C)CC)C(=O)N(C)CC(=O)N2CC[C@H]2C(=O)N(C)[C@@H](Cc2ccc(OC)cc2)C(=O)N(C)CC(=O)N[C@@H](Cc2cccc(I)c2)C(=O)N[C@@H](CCCC)C(=O)N(C)C(C)(C)C(=O)N[C@@H](CC(C)C)C(=O)N(C)[C@H](C(=O)N2CCCCC2)CC(=O)N1C [Compound 1417] ([NMeAoc(2)]I[Sar][Aze][NMeY](Me)[Sar][Phe(3-I)][Nle][NMeAib]L[NMeD]-Piperidide; lactam N-11)	> 0.5
CC[C@H](C)[C@@H]1NC(=O)[C@H](CC(C)C)N(C)C(=O)C[C@@H](C(=O)N2CCCCC2)N(C)C(=O)[C@H](CC(C)C)NC(=O)C(C)(C)N(C)C(=O)[C@H](CC=C(C)C)NC(=O)[C@H](Cc2cccc(I)c2)NC(=O)CN(C)C(=O)[C@H](Cc2ccc(Cl)cc2)N(C)C(=O)[C@@H]2CCN2C(=O)[C@H](C)N(C)C1=O [Compound 1419] ([NMeL]I[NMeA][Aze][NMePhe(4-Cl)][Sar][Phe(3-I)][X26][NMeAib]L[NMeD]-Piperidide; lactam N-11)	> 0.5
